{"source": "patent EP4205737A1", "about": "“COMPOSITION FOR PREVENTION, AMELIORATION, OR TREATMENT OF INFLAMMATORY DISEASES OR IMMUNE DISEASES COMPRISING GANCAONIN N AS ACTIVE INGREDIENT” (UNIVERSITY-INDUSTRY COOPERATION GROUP OF KYUNG HEE …, priority 2020, dated 2022)", "key": {"A549 cells": {"test_system": "A549 cells", "test": "Cell viability analysis (MTT), A549 cells", "format": "cell-based, human", "conditions": "A549 cells, 5, 10, 20, 40 µM, 24 hours, compared to the control group (FIG. 1B)", "description": "RAW264.7 murine macrophage cells were purchased from Korean Cell Line Bank (in Seoul, South Korea). A549 human alveolar basal epithelial cells were purchased from American Type Culture Collection (in ATCC, MD, USA). The cells were cultured in DMEM medium (manufactured by Corning Inc., NY, USA) containing 10% FBS (manufactured by Gibco, NY, USA) and 1X antibiotic-antimycotic solution (manufactured by ABAM, Corning Inc., NY, USA) under conditions of 37°C and 5% CO2.\nTo evaluate the cytotoxicity of gancaonin N, RAW264.7 cells and A549 cells were dispensed into 96-well plates (1 × 10^4 cells/well) and cultured under conditions of 37°C and 5% CO2. After the culturing, the cells were treated with gancaonin N at concentrations of 5, 10, 20, or 40 µM for 24 hours, and MTT solution (5 mg/mL) was added to each well. After adding 100 µL of dimethyl sulfoxide (DMSO, manufactured by Sigma-Aldrich, St. Louis, MO, USA), the absorbance was measured at 540 nm using a microplate reader (manufactured by Bio-Rad Hercules, CA, USA).\nTo examine the cytotoxicity of gancaonin N, the inventors treated Raw264.7 cells and A549 cells with gancaonin N according to the methods of Examples 1 to 4 and then measured cell viability."}, "PGE2": {"test_system": "PGE2", "test": "Western blotting of PGE2 in LPS-stimulated RAW264.7 cells", "format": "cell-based, murine", "conditions": "LPS 1 µg/mL, 5 to 40 µM, as treatment concentration increased (FIG. 2B)", "description": "(§1) RAW264.7 cells and A549 cells were dispensed into 6-well plates (1 × 10^6 cells/well) and cultured under conditions of 37°C and 5% CO2. After the culturing, the Raw 264.7 cells were treated with 1 µg/mL of lipopolysaccharide (LPS) and the A549 cells were treated with 5 µg/mL of lipopolysaccharide (LPS) and with 5 µM to 40 µM of gancaonin N, and the cells were cultured for 24 hours or 6 hours. Then, the cells were lysed using a lysis buffer. In addition, the left lung extracted from each mouse was lysed using RIPA buffer. SDS-PAGE electrophoresis was performed on the cell and tissue lysates to separate proteins by side, and 5% bovine serum albumin was used for culturing and for blocking antibodies against PGE2 (1:500), IL-1β (1:500), IL-6 (1:500), TNF-α (1:500), i-NOS (1:500), COX-2 (1:1000), P-ERK1/2 (1:1000), ERK1/2 (1:3000), P-p38 (1:1000), p38 (1:3000), NF-κB p65 (1:1000), Lamin B1 (1:1000), and β-actin (1: 5,000).\n(§2) To investigate the anti-inflammatory effect of gancaonin N, the inventors treated Raw264.7 cells with LPS and Gancaonin N, as described in Examples 1 to 6, and evaluated the expression level of inflammation-inducing factors. Thus, the inhibitory effect of gancaonin N on inflammation-related factors was specifically confirmed."}, "iNOS": {"test_system": "iNOS", "test": "Western blotting of iNOS in LPS-stimulated RAW264.7 cells", "format": "cell-based, murine", "conditions": "LPS 1 µg/mL, 5 to 40 µM, as treatment concentration increased (FIG. 2C)", "description": "as §1, §2"}, "COX-2 [1]": {"test_system": "COX-2", "test": "Western blotting of COX-2 in LPS-stimulated RAW264.7 cells", "format": "cell-based, murine", "conditions": "LPS 1 µg/mL, 5 to 40 µM, as treatment concentration increased (FIG. 2D)", "description": "as §1, §2"}, "TNF-α": {"test_system": "TNF-α", "test": "Real-time PCR of TNF-α mRNA in LPS-stimulated A549 cells", "format": "cell-based, human", "conditions": "LPS 5 ug/mL, 5 to 40 µM, 24 hours, effect proportional to amount (FIG. 3A)", "description": "(§3) A549 cells were dispensed into 6-well plates (1 × 10^6 cells/well) and cultured under conditions of 37°C and 5% CO2. After the culturing, the A549 cells were treated with of 5 ug/mL of lipopolysaccharide (LPS) and with 5 µM to 40 µM of gancaonin N, and the cells were then cultured for 24 hours. Afterwards, total RNA was isolated from each treated cell using Hybrid-RTM (GeneAll, South Korea). The isolated total RNA (500 ng) was converted to cDNA sequentially through incubation at 55°C for 60 minutes using oligo (dT) and incubation at 85°C for 5 minutes, and the cDNA was stored at 4°C until being used. In addition, real-time quantitative PCR was performed using Universal SYBR Green Master Mix (Applied Biosystems, USA), and the cDNA was amplified under conditions described below. 95°C for 15 minutes, then 95°C for 30 seconds, 59°C for 30 seconds, and 72°C for 30 seconds were repeated 40 times. […]\n(§4) To investigate the inhibitory effect of gancaonin on the expression levels of pro-inflammatory cytokines, the mRNA expression levels of tumor necrosis factor-α (hereinafter referred to as TNF-α), interleukin-1 beta (hereinafter referred to as IL-1β), and interleukin 6 (hereinafter referred to as IL-6) which are all known as pro-inflammatory cytokines were measured. […]"}, "IL-1β": {"test_system": "IL-1β", "test": "Real-time PCR of IL-1β mRNA in LPS-stimulated A549 cells", "format": "cell-based, human", "conditions": "LPS 5 ug/mL, 5 to 40 µM, 24 hours, effect proportional to amount (FIG. 3B)", "description": "as §3, §4"}, "COX-2 [2]": {"test_system": "COX-2", "test": "Western blotting of COX-2 in lung of LPS-induced acute lung injury mouse model", "format": "in vivo, BALB/c mice", "conditions": "mice, 10 mg/kg or 30 mg/kg intraperitoneally, LPS-induced ALI, Western blotting (FIG. 8)", "description": "25 6-week-old female BALB/c mice having a weight of 18g to 20 g were purchased from BioLink (DBL CO., Eumseong, Chungcheongbuk-do, Korea), and reared in the animal laboratory of KyungHee University. To establish an LPS-induced acute lung injury model, all the mice were divided into five groups each group of which consisted of 5 mice, and the five groups were referred to as control, vehicle (only LPS treatment), gancaonin N (10 mg/kg), gancaonin N (30 mg/kg), and dexamethasone (3 mg/kg). Gancaonin N was intraperitoneally injected at a dose of 10 mg/kg or 30 mg/kg, and dexamethasone was intraperitoneally injected at a dose of 3 mg/kg as a positive control group. In addition, the control and vehicle groups were intraperitoneally injected with 4% DMSO in which gancaonin N was dissolved. Then, 10 µg/50 µL of LPS was intratracheally administered to the mice except for the control group one hour later (the control group mice were administered 50 µL of PBS), and the mice were sacrificed 12 hours later.\nRAW264.7 cells and A549 cells were dispensed into 6-well plates (1 × 10^6 cells/well) and cultured under conditions of 37°C and 5% CO2. […]\nTo specifically investigate whether gancaonin N can inhibit pro-inflammatory factors in a mouse model, the protein expression levels of COX-2, IL-1β, and TNF-α were measured by Western blotting as described in Examples 1 to 6 above."}}, "data": [{"smiles": "COc1ccc(-c2coc3cc(O)c(CC=C(C)C)c(O)c3c2=O)c(O)c1", "note": "[gancaonin N, 5,7-dihydroxy-3-(2-hydroxy-4-methoxyphenyl)-6-(3-methylbut-2-enyl)chromen-4-one]", "values": [{"measurement": "cell viability", "setting": "A549 cells", "value": "did not decrease"}, {"measurement": "expression level of protein of PGE2", "setting": "PGE2", "value": "significantly decreased"}, {"measurement": "expression level of protein of iNOS", "setting": "iNOS", "value": "significantly decreased"}, {"measurement": "expression level of protein of COX-2", "setting": "COX-2 [1]", "value": "significantly decreased"}, {"measurement": "mRNA expression of TNF-α", "setting": "TNF-α", "value": "significantly inhibited"}, {"measurement": "mRNA expression of IL-1β", "setting": "IL-1β", "value": "significantly inhibited"}, {"measurement": "protein expression level of COX-2 in lung", "setting": "COX-2 [2]", "value": "significantly reduced"}]}]}
